According to ChEMBL document CHEMBL6078718, “F-CPI: A Multimodal Deep Learning Approach for Predicting Compound Bioactivity Changes Induced by Fluorine Substitution” (J Med Chem, 2025):

Target: Replicase polyprotein 1ab (Severe acute respiratory syndrome coronavirus 2, UniProt P0DTD1)
Assay: Inhibition of 6xHis-tagged SARS-CoV-2 3CLpro using DKE as substrate preincubated for 60 mins followed by substrate addition measured after 20 mins by fluorescence based assay

| SMILES | IC50 [nM] |
| --- | --- |
| C[C@H](NC(=O)C(F)F)C(=O)N(C)[C@@H](CC1CC1)C(=O)N1C[C@]2(C[C@H]1C#N)C(=O)Nc1ccccc12 | 21.2 |
| CC(=O)N[C@H](C(=O)N1C[C@H]2[C@@H]([C@H]1C(=O)N[C@H](C#N)C[C@@H]1CCNC1=O)C2(C)C)c1cc(Cl)c(OCCN(C)C)c(Cl)c1 | 28200 |
| C[C@H](NC(=O)C(F)(F)F)C(=O)N(C)[C@@H](CC1CC1)C(=O)N1C[C@]2(C[C@H]1C#N)C(=O)Nc1ccccc12 | 25.5 |
| CN(C)CCOc1c(Cl)cc([C@H](NC(=O)CF)C(=O)N2C[C@H]3[C@@H]([C@H]2C(=O)N[C@H](C#N)C[C@@H]2CCNC2=O)C3(C)C)cc1Cl | 230 |
| CC(C)C[C@@H](C(=O)N1C[C@]2(C[C@H]1C#N)C(=O)Nc1ccccc12)N(C)C(=O)[C@H](C)NC(=O)C(C)(C)F | 24.3 |
| CC(C)C[C@@H](C(=O)N1C[C@]2(C[C@H]1C#N)C(=O)Nc1ccccc12)N(C)C(=O)[C@H](C)NC(=O)C(C)C | 29.8 |
